From patent US4595678A, “N-substituted pseudo-aminosugars and pharmaceutical compositions containing same” (Takeda Chemical Industries, Ltd., priority 1982, dated 1986)
Where two headings read alike, the source gives them in different places.

How the values were obtained:
[1] = biological target: maltase (porcine intestinal mucosa); assay: Glucosidase inhibitory activity, maltase (maltose as substrate); assay type: biochemical; settings: read-out: IC50 (maltase), 50% inhibition concentration, pH 6.8, 37° C., 10 minutes
Experimental: (§1) The method of assaying the glucosidase inhibitory activity.
(§2) The inhibitory activities against maltase or saccharase prepared from porcine intestinal mucosa [prepared in accordance with the procedure as described by B. Borgstrom and A. Dahlqvist in Acta Chem. Scand., 12, 1997-2006, (1958)], when maltose or sucrose is used as a substrate, were determined by adding, to 0.25 ml of a solution of an enzyme prepared by diluting suitably with 0.02M phosphate buffer (pH 6.8), 0.5 ml of an inhibitory substance to be tested (compound [I] or a pharmaceutically acceptable salt thereof) in the same buffer and 0.25 ml of 0.05M maltose or 0.05M sucrose as the substrate in the same buffer, allowing the mixture to react at 37° C. for 10 minutes, then adding 3 ml of Glucose B-Test Reagent (a glucose oxidase reagent for measurement of glucose, produced by Wako Pure Chemical Co., Japan), further warming the mixture at 37° C. for 20 minutes and measuring the absorbance of the colored reaction solution at 505 nm.

[2] = biological target: T1, saccharase (porcine intestinal mucosa) (Sus scrofa, UniProt P56729); assay: Glucosidase inhibitory activity, saccharase (sucrose as substrate); assay type: biochemical
T1 construct: prepared from porcine intestinal mucosa; from tissue; host or cells: porcine intestinal mucosa
T1 sequence (P56729 with tags, fused parts or gaps limits assumed): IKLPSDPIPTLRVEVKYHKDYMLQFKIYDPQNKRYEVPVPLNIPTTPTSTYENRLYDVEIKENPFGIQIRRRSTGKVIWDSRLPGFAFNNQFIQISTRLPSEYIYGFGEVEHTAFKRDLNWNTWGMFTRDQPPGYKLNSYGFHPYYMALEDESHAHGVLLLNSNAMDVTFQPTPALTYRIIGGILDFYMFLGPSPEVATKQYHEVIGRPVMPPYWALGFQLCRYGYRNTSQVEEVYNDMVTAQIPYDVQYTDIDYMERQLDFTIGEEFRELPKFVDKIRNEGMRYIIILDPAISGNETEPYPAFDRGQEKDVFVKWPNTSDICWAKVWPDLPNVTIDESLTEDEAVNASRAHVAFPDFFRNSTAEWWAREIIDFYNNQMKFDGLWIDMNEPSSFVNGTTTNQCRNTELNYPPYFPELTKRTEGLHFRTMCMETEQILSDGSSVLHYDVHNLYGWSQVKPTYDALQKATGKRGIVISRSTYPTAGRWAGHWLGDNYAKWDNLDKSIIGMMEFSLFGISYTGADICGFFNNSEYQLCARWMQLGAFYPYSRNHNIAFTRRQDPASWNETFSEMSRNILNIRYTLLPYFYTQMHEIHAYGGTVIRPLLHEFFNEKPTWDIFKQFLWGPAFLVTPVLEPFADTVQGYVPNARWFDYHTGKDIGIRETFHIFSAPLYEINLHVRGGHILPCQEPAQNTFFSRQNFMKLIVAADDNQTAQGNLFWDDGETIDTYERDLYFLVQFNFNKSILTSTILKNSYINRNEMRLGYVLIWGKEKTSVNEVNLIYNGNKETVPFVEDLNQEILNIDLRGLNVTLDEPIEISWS
T1 sequence (P56729 with tags, fused parts or gaps partner limits assumed): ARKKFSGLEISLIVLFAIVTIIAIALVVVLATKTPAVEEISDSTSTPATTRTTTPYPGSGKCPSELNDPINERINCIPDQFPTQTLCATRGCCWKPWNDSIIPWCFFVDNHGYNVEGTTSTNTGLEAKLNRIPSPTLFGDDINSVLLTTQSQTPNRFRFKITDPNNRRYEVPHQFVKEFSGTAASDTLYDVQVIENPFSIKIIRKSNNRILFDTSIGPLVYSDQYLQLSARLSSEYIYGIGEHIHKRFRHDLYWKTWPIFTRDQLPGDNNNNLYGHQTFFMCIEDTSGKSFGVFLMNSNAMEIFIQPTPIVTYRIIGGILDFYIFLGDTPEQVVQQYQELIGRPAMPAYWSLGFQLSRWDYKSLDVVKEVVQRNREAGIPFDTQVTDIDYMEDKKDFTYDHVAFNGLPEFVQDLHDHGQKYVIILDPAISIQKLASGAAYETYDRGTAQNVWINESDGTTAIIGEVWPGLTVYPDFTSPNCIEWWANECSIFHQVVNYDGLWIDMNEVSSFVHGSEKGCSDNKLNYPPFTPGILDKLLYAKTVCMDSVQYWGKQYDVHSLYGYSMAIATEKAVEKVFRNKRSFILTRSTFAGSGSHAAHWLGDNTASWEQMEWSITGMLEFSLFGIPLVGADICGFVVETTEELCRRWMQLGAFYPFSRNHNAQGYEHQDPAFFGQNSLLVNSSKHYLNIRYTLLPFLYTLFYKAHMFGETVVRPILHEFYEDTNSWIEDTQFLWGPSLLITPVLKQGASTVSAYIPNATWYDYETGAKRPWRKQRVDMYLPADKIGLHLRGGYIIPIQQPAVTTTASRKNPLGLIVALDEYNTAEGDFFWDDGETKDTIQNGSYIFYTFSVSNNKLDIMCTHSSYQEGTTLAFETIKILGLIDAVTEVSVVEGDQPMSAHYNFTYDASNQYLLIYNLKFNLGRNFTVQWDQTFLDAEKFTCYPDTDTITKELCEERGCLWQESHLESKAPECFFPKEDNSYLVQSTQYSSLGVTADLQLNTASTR
Experimental: as §1, §2

[3] = tested on: α-glucoside hydrolase (α-glucosidase); settings: earlier reports; cited from earlier work
[4] = read-out: IC50 (saccharase), 50% inhibition concentration, pH 6.8, 37° C., 10 minutes

Compound `C[C@H]1O[C@H](O[C@H]2[C@H](O)[C@@H](O)[C@@H]3OC[C@H]2O3)[C@H](O)[C@@H](O)[C@@H]1N[C@H]1C[C@](O)(CO)[C@@H](O)[C@H](O)[C@H]1O` [Example 25, isomer (b)] has an IC50 [1] of 130 nM and an IC50 ([2]; pH 6.8, 37° C., 10 minutes) of 25 nM.

`OC[C@H]1C[C@H](N[C@@H]2C[C@H](CO)[C@@H](O)[C@H](O)[C@H]2O)[C@H](O)[C@@H](O)[C@@H]1O` [Example 17, (1R,2S) isomer, N-[(1R,2S)-(2,4/3,5)-2,3,4-trihydroxy-5-hydroxymethylcyclohexyl]validamine] gave an IC50 [1] of 2200 nM and an IC50 ([2]; pH 6.8, 37° C., 10 minutes) of 270 nM.

`CO[C@H]1O[C@H](C)[C@@H](N[C@H]2C=C(CO)[C@@H](O)[C@H](O)[C@H]2O)[C@H](O)[C@H]1O` [Reference Example 40,6-deoxyglucopyranoside isomer, Methyl 4-[(1S,6S)-(4,6/5)-4,5,6-trihydroxy-3-hydroxymethyl-2-cyclohexen-1-yl]amino-4,6-dideoxy-α-D-glucopyranoside] gave an IC50 ([2]; pH 6.8, 37° C., 10 minutes) of 700 nM.

Work on `C[C@H]1CC(O)[C@H](O)[C@@H](O)[C@@H]1N[C@H]1C[C@](O)(CO)[C@@H](O)[C@H](O)[C@H]1O` (single isomer, unassigned) [Example 21, isomer (b)] yielded an IC50 [2, 4] of 36 nM.

With `CCOC(=O)NC1CC(NC(=O)OCC)C(N[C@H]2C[C@](O)(CO)[C@@H](O)[C@H](O)[C@H]2O)C(O)C1O` (stereo partly drawn) [Example 11, N-(2,4-Diethoxycarbonylamino-5,6-dihydroxycyclohexyl)valiolamine] the IC50 [1] was 9000 nM and the IC50 [2, 4] was 4900 nM.

`CO[C@H]1O[C@H](CO)[C@H](N[C@H]2C[C@](O)(CO)[C@@H](O)[C@H](O)[C@H]2O)[C@H](O)[C@H]1O` [Example 4, Galactopyranoside isomer, Methyl 4-[(1S,2S)-(2,4,5(OH)/3,5-(CH2 OH))-2,3,4,5-tetrahydroxy-5-hydroxymethylcyclohexyl]amino-4-deoxy-α-D-galactopyranoside] showed an IC50 [1] of 320 nM and an IC50 ([2]; pH 6.8, 37° C., 10 minutes) of 620 nM.

For `C[C@H]1O[C@H](O[C@H]2[C@H](O)[C@@H](O)[C@@H](O[C@H]3[C@H](O)[C@@H](O)C(O)O[C@@H]3CO)O[C@@H]2CO)[C@H](O)[C@@H](O)[C@@H]1N[C@H]1C=C(CO)[C@@H](O)[C@H](O)[C@H]1O` (stereo partly drawn) [Acarbose], the “α-glucoside hydrolase suppressing / α-glucosidase inhibitory activity” value [3] is listed as “far from being satisfactory”.

For `N[C@H]1C[C@H](CO)C(N[C@H]2C[C@H](CO)[C@@H](O)[C@H](O)[C@H]2O)[C@H](O)[C@H]1O` (single isomer, unassigned) [Example 6, later eluted isomer], the IC50 [2, 4] was 78000 nM.

`OC[C@H]1C[C@H](NC2[C@@H](O)C(O)O[C@H](CO)[C@H]2O)[C@H](O)[C@@H](O)[C@@H]1O` (stereo partly drawn) [N-(2,3,5-trihydroxy-6-hydroxymethyltetrahydropyran-4-yl)validamine] gave an IC50 [1] of 1900 nM and an IC50 [2, 4] of 170 nM.

`CC1(O)CC(N)C(O)C(O)C1O` (stereo not drawn) [compound 26, 7-Deoxyvaliolamine] showed an IC50 ([2]; pH 6.8, 37° C., 10 minutes) of 24000 nM.

For `C[C@H]1CC(O)[C@H](O)[C@@H](O)[C@@H]1N[C@H]1C[C@](O)(CO)[C@@H](O)[C@H](O)[C@H]1O` (single isomer, unassigned) [Example 21, isomer (a)], the IC50 [2, 4] was 35 nM.

`C[C@H]1O[C@H](O[C@H]2[C@H](O)[C@@H](O)C(O)O[C@@H]2CO)[C@H](O)[C@@H](O)[C@@H]1N[C@H]1C[C@](O)(CO)[C@@H](O)[C@H](O)[C@H]1O` (stereo partly drawn) [Example 28, 4-O-α-[4-[(1S)-(1,2,4,5(OH)/3,5(CH2 OH))-(2,3,4,5-Tetrahydroxy-5-(hydroxymethyl)cyclohexyl)amino]-4,6-dideoxy-D-glucopyranosyl]-D-glucopyranose] gave an IC50 [1] of 120 nM and an IC50 ([2]; pH 6.8, 37° C., 10 minutes) of 80 nM.

For `CO[C@H]1O[C@H](C)[C@H](N[C@H]2C[C@H](CO)[C@@H](O)[C@H](O)[C@H]2O)[C@H](O)[C@H]1O` [Example 1,6-deoxygalactopyranoside isomer, Methyl 4-[(1S,2S)-(2,4/3,5)-2,3,4-trihydroxy-5-hydroxymethylcyclohexyl]amino-4,6-dideoxy-α-D-galactopyranoside], the IC50 ([2]; pH 6.8, 37° C., 10 minutes) was 5600 nM.

Work on `C[C@H]1C[C@H](N)[C@H](O)[C@@H](O)[C@H]1N[C@H]1C[C@](O)(CO)[C@@H](O)[C@H](O)[C@H]1O` [Example 20, isomer (b), N-[(1S,2S)-(2,6/3,4)-4-amino-2,3-dihydroxy-6-methylcyclohexyl]valiolamine] yielded an IC50 ([2]; pH 6.8, 37° C., 10 minutes) of 53 nM.

For `O=C(N[C@H]1C[C@H](CO)C(N[C@H]2C[C@H](CO)[C@@H](O)[C@H](O)[C@H]2O)[C@H](O)[C@H]1O)OCc1ccccc1` (stereo partly drawn) [Example 5, [(1S,2S)-(2,4/3,5)-2,3,4-Trihydroxy-5-hydroxymethylcyclohexyl][(2S)-(2,6/3,4)-4-benzyloxycarbonylamino-2,3-dihydroxy-6-hydroxy-methylcyclohexyl]amine], the IC50 ([2]; pH 6.8, 37° C., 10 minutes) was 700 nM.

`CO[C@H]1O[C@H](C)[C@@H](N[C@H]2C[C@H](CO)[C@@H](O)[C@H](O)[C@H]2O)[C@H](O)[C@H]1O` [Example 1,6-deoxyglucopyranoside isomer, Methyl 4-[(1S,2S)-(2,4/3,5)-2,3,4-trihydroxy-5-hydroxymethylcyclohexyl]amino-4,6-dideoxy-α-D-glucopyranoside] showed an IC50 [1] of 1800 nM and an IC50 ([2]; pH 6.8, 37° C., 10 minutes) of 740 nM.

Work on `OC[C@H]1C[C@@H](N[C@H]2C[C@](O)(CO)[C@@H](O)[C@H](O)[C@H]2O)[C@H](O)[C@@H](O)[C@@H]1O` [Example 18, (1R,2S) isomer, N-[(1R,2S)-(2,4/3,5)-2,3,4-trihydroxy-5-hydroxymethylcyclohexyl]valiolamine] yielded an IC50 [1] of 44 nM and an IC50 ([2]; pH 6.8, 37° C., 10 minutes) of 48 nM.

With `N[C@H]1C[C@H](CO)C(N[C@H]2C[C@](O)(CO)[C@@H](O)[C@H](O)[C@H]2O)[C@H](O)[C@H]1O` (single isomer, unassigned) [Example 8,4-amino derivative from the later eluted component of Example 7] the IC50 [1] was 2800 nM and the IC50 [2, 4] was 230 nM.

For `NC1CC(N)C(N[C@H]2C[C@H](CO)[C@@H](O)[C@H](O)[C@H]2O)C(O)C1O` (stereo partly drawn) [Example 14, N-(2,4-Diamino-5,6-dihydroxycyclohexyl)validamine], the IC50 [2, 4] was 880 nM.

`N[C@H]1C[C@H](CO)C(N[C@H]2C[C@](O)(CO)[C@@H](O)[C@H](O)[C@H]2O)[C@H](O)[C@H]1O` (single isomer, unassigned) [Example 8,4-amino derivative from the first eluted component of Example 7] gave an IC50 [1] of 3300 nM and an IC50 [2, 4] of 250 nM.

With `N[C@H]1C[C@H](CO)C(N[C@H]2C[C@H](CO)[C@@H](O)[C@H](O)[C@H]2O)[C@H](O)[C@H]1O` (single isomer, unassigned) [Example 6, first eluted isomer] the IC50 [1] was 2900 nM and the IC50 [2, 4] was 1600 nM.

In the case of `OC[C@H]1C[C@H](N[C@H]2C[C@](O)(CO)[C@@H](O)[C@H](O)[C@H]2O)[C@H](O)[C@@H](O)[C@@H]1O` [Example 18, (1S,2S) isomer, N-[(1S,2S)-(2,4/3,5)-2,3,4-trihydroxy-5-hydroxymethylcyclohexyl]valiolamine], the IC50 ([2]; pH 6.8, 37° C., 10 minutes) is reported as 5600 nM.

With `CC1(C)O[C@H]2O[C@H]([C@H](O)CO)C(N[C@H]3C[C@](O)(CO)[C@@H](O)[C@H](O)[C@H]3O)[C@H]2O1` (stereo partly drawn) [N-[2,3-O-isopropylidene-2,3-dihydroxy-5-(1,2-dihydroxyethyl)tetrahydrofuran-4-yl]valiolamine] the IC50 [2, 4] was 37000 nM.

Compound `NC1CC(N)C(N[C@H]2C[C@](O)(CO)[C@@H](O)[C@H](O)[C@H]2O)C(O)C1O` (single isomer, unassigned) [Example 12, Isomer D, N-(2,4-Diamino-5,6-dihydroxycyclohexyl)valiolamine] has an IC50 [1] of 1000 nM and an IC50 [2, 4] of 88 nM.

Compound `OCC1=C[C@H](NC2[C@@H](O)C(O)O[C@H](CO)[C@H]2O)[C@H](O)[C@@H](O)[C@@H]1O` (stereo partly drawn) [N-(2,3,5-trihydroxy-6-hydroxymethyltetrahydropyran-4-yl)valienamine] has an IC50 [1] of 31000 nM and an IC50 [2, 4] of 450 nM.

`OC[C@H]1OC(O)[C@H](O)C(N[C@H]2C[C@](O)(CO)[C@@H](O)[C@H](O)[C@H]2O)[C@@H]1O` (stereo partly drawn) [N-(2,3,5-trihydroxy-6-hydroxymethyltetrahydropyran-4-yl)valiolamine] gave an IC50 [1] of 110 nM and an IC50 [2, 4] of 90 nM.

`CO[C@H]1O[C@H](CO)[C@H](N[C@H]2C[C@H](CO)[C@@H](O)[C@H](O)[C@H]2O)[C@H](O)[C@H]1O` [Example 3, Galactopyranoside isomer, Methyl 4-[(1S,2S)-(2,4/3,5)-2,3,4-trihydroxy-5-hydroxymethylcyclohexyl]amino-4-deoxy-α-D-galactopyranoside] showed an IC50 ([2]; pH 6.8, 37° C., 10 minutes) of 1000 nM.

Work on `CO[C@H]1O[C@H](CO)[C@@H](N[C@H]2C[C@H](CO)[C@@H](O)[C@H](O)[C@H]2O)[C@H](O)[C@H]1O` [Example 3, Glucopyranoside isomer, Methyl 4-[(1S,2S)-(2,4/3,5)-2,3,4-trihydroxy-5-hydroxymethylcyclohexyl]amino-4-deoxy-α-D-glucopyranoside] yielded an IC50 [1] of 4400 nM and an IC50 ([2]; pH 6.8, 37° C., 10 minutes) of 580 nM.

`CO[C@H]1O[C@H](CO)[C@@H](N[C@H]2C[C@](O)(CO)[C@@H](O)[C@H](O)[C@H]2O)[C@H](O)[C@H]1O` [Example 4, Glucopyranoside isomer, Methyl 4-[(1S,2S)-(2,4,5(OH)/3,5(CH2 OH))-2,3,4,5-tetrahydroxy-5-hydroxymethylcyclohexyl]amino-4-deoxy-α-D-glucopyranoside] showed an IC50 [1] of 72 nM and an IC50 ([2]; pH 6.8, 37° C., 10 minutes) of 80 nM.
